Measured values as given in USRE50528E1, “Compounds and compositions for modulating EGFR mutant kinase activities” (Yuhan Corporation, priority 2014, dated 2025).

Assays:
EGFR mutant T790M = biological target: T1, EGFR mutant T790M (Homo sapiens, UniProt P00533, T790M); test: Kinase inhibition assay, EGFR mutant T790M; settings: biochemical potency;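 also: truncated human EGFR mutant enzyme preincubated two hours with compound, then ATP plus ULight-PolyGT peptide for one hour, Europium-labeled antibody LANCE detection, IC50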
T1 construct: truncated human JAK3, EGFR mutants such as del E746-A750; purchased Carna Biosciences
T1 sequence (P00533 669-1210 T790M limits assumed): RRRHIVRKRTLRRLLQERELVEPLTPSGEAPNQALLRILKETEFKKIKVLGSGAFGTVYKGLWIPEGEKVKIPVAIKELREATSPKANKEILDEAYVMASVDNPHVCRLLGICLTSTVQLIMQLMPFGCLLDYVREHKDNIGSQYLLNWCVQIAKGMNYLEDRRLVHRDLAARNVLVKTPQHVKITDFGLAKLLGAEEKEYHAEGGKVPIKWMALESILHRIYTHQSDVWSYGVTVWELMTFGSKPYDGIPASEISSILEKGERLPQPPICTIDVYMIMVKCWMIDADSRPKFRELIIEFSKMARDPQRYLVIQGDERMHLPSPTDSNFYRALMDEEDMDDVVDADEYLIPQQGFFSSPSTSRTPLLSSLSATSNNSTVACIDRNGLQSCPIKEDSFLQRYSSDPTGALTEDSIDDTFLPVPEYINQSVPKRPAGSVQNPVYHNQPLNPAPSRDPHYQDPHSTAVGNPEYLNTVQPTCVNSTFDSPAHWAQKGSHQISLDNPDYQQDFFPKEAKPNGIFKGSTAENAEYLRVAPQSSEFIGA

[1] = biological target: T2, EGFR mutant Del19 (E746-A750) (Homo sapiens, UniProt P00533, DEL746-750); test: Kinase inhibition assay, EGFR del E746-A750; type: biochemical; settings: read-out: EGFR mutants Del19 (E746-A750);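 also: truncated human EGFR mutant kinase, two-hour preincubation with compound, then one-hour reaction with ATP and ULight-PolyGT peptide, LANCE Europium-antibody phosphorylation readout, IC50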
T2 construct: truncated human JAK3, EGFR mutants such as del E746-A750; purchased Carna Biosciences
T2 sequence (P00533 with tags, fused parts or gaps DEL746-750 limits assumed): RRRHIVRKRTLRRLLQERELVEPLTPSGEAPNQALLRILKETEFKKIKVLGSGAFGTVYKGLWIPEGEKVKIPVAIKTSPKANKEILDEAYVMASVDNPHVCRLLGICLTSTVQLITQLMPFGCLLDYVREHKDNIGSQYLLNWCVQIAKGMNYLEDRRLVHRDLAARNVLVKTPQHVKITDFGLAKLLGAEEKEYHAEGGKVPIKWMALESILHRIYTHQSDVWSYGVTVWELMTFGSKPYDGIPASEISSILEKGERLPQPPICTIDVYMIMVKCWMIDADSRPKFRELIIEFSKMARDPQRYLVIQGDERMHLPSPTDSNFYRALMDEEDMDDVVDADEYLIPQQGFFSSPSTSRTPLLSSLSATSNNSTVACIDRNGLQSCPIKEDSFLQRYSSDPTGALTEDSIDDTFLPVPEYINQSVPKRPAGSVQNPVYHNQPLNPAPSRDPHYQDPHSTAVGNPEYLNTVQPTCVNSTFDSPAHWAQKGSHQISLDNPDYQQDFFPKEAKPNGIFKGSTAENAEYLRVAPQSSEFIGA

EGFR mutant L858R = biological target: T3, EGFR mutant L858R (Homo sapiens, UniProt P00533, L858R); test: Kinase inhibition assay, EGFR L858R; type: biochemical; settings: read-out: EGFR mutants L858R;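 also: truncated human EGFR L858R kinase with compound preincubation, ULight-PolyGT peptide phosphorylation read by Europium-antibody Lance detection, IC50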
T3 construct: truncated human JAK3, EGFR mutants such as del E746-A750; purchased Carna Biosciences
T3 sequence (P00533 669-1210 L858R limits assumed): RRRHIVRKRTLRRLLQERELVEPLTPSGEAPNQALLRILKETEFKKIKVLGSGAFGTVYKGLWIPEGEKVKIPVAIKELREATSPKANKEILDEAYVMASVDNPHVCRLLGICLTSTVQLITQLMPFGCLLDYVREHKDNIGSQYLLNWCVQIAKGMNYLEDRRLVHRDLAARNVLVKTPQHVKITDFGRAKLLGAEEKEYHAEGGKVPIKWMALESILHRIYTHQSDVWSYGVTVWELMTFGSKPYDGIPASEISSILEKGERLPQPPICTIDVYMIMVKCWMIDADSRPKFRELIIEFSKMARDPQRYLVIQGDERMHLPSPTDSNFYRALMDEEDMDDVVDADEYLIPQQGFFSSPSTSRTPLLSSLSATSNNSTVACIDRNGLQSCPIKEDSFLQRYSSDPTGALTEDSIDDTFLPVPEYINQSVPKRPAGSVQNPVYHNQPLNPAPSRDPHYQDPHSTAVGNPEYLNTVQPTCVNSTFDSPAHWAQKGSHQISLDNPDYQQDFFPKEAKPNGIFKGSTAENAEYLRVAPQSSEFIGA

EGFR mutant L858R/T790M = biological target: T4, EGFR mutant L858R/T790M (Homo sapiens, UniProt P00533, L858R/T790M); test: Kinase inhibition assay, EGFR L858R/T790M; type: biochemical; settings: read-out: EGFR mutants L858R/T790M;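 also: truncated human enzyme preincubated two hours with compound, then one hour with one millimolar ATP and ULight-PolyGT peptide, Europium-labeled antibody detection, IC50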
T4 construct: truncated human JAK3, EGFR mutants such as del E746-A750; purchased Carna Biosciences
T4 sequence (P00533 669-1210 T790M/L858R limits assumed): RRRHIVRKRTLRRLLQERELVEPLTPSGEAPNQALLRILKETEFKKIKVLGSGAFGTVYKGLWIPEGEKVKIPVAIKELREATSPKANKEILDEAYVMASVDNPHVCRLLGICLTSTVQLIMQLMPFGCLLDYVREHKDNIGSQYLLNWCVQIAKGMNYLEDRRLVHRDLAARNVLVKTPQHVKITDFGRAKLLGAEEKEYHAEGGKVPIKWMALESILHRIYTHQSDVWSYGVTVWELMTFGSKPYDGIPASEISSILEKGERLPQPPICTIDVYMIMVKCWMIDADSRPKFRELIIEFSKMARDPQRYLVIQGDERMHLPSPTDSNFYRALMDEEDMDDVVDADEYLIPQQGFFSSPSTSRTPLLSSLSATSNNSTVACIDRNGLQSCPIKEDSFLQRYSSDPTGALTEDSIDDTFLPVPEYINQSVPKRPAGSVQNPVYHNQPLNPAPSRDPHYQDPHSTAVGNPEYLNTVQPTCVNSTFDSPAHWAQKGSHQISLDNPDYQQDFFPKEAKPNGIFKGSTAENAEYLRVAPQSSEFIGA

EGFR mutant Del19/T790M = biological target: T5, EGFR mutant Del19/T790M (Homo sapiens, UniProt P00533, DEL746-750/T790M); test: Kinase inhibition assay, EGFR del E746-A750/T790M; type: biochemical; settings: read-out: EGFR mutants Del19/T790M
T5 construct: truncated human JAK3, EGFR mutants such as del E746-A750; purchased Carna Biosciences
T5 sequence (P00533 with tags, fused parts or gaps DEL746-750/T790M limits assumed): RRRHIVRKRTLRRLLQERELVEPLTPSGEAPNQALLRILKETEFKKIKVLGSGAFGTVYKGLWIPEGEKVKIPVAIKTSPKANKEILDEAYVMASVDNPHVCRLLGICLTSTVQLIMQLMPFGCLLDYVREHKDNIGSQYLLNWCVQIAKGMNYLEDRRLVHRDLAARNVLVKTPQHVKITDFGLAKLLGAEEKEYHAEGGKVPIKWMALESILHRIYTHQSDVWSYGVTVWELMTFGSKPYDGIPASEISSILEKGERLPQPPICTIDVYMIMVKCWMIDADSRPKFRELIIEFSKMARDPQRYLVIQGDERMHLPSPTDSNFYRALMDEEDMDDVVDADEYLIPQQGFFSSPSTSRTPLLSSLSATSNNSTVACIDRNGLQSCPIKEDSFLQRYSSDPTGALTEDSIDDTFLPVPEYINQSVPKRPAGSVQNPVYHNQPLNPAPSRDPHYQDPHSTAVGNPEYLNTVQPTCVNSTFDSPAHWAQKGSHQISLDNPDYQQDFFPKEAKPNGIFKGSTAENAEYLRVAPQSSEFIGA

JAK3 = biological target: T6, JAK3 (Homo sapiens, UniProt P52333); test: Kinase inhibition assay, JAK3; settings: biochemical potency;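 also: IC50 against purified truncated human JAK3 preincubated with compound, then reacted with ATP and ULight-Jak1 peptide, phosphorylation read by Europium-labeled antibody LANCE detection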
T6 construct: EGFR and JAK3 (JH1domain-catalytic) kinases, and mutant forms thereof; purchased Carna Biosciences
T6 sequence (P52333 822-1111 limits assumed): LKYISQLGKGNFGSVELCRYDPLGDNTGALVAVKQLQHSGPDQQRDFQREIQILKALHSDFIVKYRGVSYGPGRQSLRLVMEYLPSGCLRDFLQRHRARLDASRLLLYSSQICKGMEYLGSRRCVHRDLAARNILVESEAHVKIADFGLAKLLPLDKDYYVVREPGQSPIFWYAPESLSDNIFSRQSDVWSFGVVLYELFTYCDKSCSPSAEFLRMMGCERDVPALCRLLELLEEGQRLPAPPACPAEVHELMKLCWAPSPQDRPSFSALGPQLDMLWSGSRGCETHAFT

SYK = biological target: T7, SYK (Homo sapiens, UniProt P43405); test: Kinase inhibition assay, SYK; type: biochemical; settings: biochemical potency;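 also: purified full-length human SYK pre-incubated 30 min with compound, then ULight-TK peptide phosphorylation for 1 h, detected with Europium-labeled antibody in Lance buffer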
T7 construct: Purified human, full-length SYK, KDR; purchased Carna Biosciences

KDR = biological target: T8, KDR (Homo sapiens, UniProt P35968); test: Kinase inhibition assay, KDR; type: biochemical; settings: biochemical potency;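 also: purified full-length human KDR, 30 min preincubation with compound, then 1 h reaction with ATP and Ulight-Jak1 peptide substrate, phosphorylation read by Lance Europium antibody detection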
T8 construct: Purified human, full-length SYK, KDR; purchased Carna Biosciences
T8 sequence (P35968 20-1356): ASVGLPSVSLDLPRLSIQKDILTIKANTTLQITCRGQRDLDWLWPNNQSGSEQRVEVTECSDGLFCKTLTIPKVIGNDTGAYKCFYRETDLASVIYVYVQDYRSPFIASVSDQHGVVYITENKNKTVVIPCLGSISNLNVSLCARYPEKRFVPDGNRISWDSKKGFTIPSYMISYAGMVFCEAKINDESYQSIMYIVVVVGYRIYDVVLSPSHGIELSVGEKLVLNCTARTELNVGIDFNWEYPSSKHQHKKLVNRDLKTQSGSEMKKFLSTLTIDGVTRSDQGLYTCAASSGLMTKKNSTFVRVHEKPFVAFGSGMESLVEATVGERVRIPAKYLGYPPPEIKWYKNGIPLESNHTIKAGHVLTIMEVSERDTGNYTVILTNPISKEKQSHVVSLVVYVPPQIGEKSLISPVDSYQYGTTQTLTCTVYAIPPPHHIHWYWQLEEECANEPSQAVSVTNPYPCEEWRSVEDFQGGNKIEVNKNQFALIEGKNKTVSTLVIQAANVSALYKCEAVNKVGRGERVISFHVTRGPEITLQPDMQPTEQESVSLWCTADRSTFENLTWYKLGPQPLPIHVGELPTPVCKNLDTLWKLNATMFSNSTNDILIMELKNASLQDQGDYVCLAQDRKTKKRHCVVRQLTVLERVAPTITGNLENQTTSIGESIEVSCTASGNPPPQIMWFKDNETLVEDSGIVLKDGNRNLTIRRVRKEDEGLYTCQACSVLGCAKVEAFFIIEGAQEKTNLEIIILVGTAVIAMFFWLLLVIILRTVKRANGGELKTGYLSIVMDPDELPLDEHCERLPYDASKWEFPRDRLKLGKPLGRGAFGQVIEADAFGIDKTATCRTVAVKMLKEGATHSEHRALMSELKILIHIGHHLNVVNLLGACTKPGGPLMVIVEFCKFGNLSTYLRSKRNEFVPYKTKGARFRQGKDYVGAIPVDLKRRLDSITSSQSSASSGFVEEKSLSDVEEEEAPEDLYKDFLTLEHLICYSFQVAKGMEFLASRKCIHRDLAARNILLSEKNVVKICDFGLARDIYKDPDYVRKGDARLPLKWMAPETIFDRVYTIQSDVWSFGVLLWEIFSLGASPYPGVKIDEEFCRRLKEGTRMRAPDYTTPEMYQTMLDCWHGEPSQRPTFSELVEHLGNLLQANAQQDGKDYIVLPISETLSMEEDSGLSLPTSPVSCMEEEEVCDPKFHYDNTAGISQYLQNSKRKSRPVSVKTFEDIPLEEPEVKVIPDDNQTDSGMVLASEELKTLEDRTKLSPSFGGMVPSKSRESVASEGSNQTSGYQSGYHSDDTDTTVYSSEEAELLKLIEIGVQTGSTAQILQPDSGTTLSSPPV

H2073 (EGFR wildtype) = test: Cell viability assay, H2073; type: cell-based; settings: NCI-H2073; cellular potency; 72-hour incubation; ATPLite;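 also: NSCLC cell line whose survival relies on wildtype EGFR, treated with serially diluted compound, cytotoxic effect judged from remaining cell viability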
[2] = tested on: PC9 (EGFR del E746-A750 mutant); test: Cell viability assay, PC9; type: cell-based; settings: for Selectivity over wildtype, Wildtype vs mutant H2073/PC9 (fold): cellular potency ratio; for IC50: cellular potency, 72-hour incubation, ATPLite, read-out: EGFR Mutants PC9;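 as to all read-outs here: NSCLC PC9 cells, whose viability relies on EGFR del E746-A750, exposed to serially diluted compound for 72 h at 37 °C, ATPLite read-out, IC50, H2073 as EGFR wildtype line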
[3] = tested on: H1975 (EGFR L858R/T790M mutant); test: Cell viability assay, H1975; type: cell-based; settings: for IC50: Homo sapiens, NCI-H1975, cellular potency, 72-hour incubation, ATPLite, read-out: EGFR Mutants H1975; for Selectivity over wildtype, Wildtype vs mutant H2073/H1975 (fold): cellular potency ratio;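 as to all read-outs here: NSCLC cells whose survival relies on EGFR L858R/T790M, exposed 72 h to serially diluted compound, ATP-based viability readout, with the H2073 line (wildtype EGFR dependent) as wildtype comparator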

SMILES	IC50 (EGFR mutant T790M)	IC50 [1]	IC50 (EGFR mutant L858R)	IC50 (EGFR mutant L858R/T790M)	IC50 (EGFR mutant Del19/T790M)	IC50 (JAK3)	IC50 (SYK)	IC50 (KDR)	IC50 (H2073 (EGFR wildtype))	IC50 [2]	IC50 [3]	Selectivity over wildtype, Wildtype vs mutant H2073/PC9 (fold) [2]	Selectivity over wildtype, Wildtype vs mutant H2073/H1975 (fold) [3]
C=CC(=O)Nc1cc(Nc2ncc(C)c(-n3cc(CN4CCC4)cn3)n2)c(OC)cc1N(C)CCN(C)C [Compound 42, N-(5-(4-(4-(azetidin-1-ylmethyl)-1H-pyrazol-1-yl)-5-methylpyrimidin-2-ylamino)-2-((2-(dimethylamino)ethyl)(methyl)amino)-4-methoxyphenyl)acrylamide]	< 20 nM	< 20 nM	20 to 200 nM	< 20 nM	< 20 nM	< 20 nM	> 1000 nM	> 1000 nM	> 1000 nM	201 to 1000 nM	20 to 200 nM	20-100 fold	>200 fold
C=CC(=O)Nc1cc(Nc2ncc(C)c(-n3cc(CN4CC(O)C4)c(C)n3)n2)c(OC)cc1N1CCN(C)CC1 [Compound 29, N-(5-(4-(4-((3-hydroxyazetidin-1-yl)methyl)-3-methyl-1H-pyrazol-1-yl)-5-methylpyrimidin-2-ylamino)-4-methoxy-2-(4-methylpiperazin-1-yl)phenyl)acrylamide]	< 20 nM	< 20 nM	< 20 nM	< 20 nM	< 20 nM	< 20 nM	20 to 200 nM	> 1000 nM	> 1000 nM	20 to 200 nM	20 to 200 nM	<20 fold	<20 fold
C=CC(=O)Nc1cc(Nc2ncc(C)c(-n3cc(CN4C[C@@H](O)[C@@H](O)C4)c(C)n3)n2)c(OC)cc1N1CCOCC1 [Compound 25, N-(5-(4-(4-(((3R,4S)-3,4-dihydroxypyrrolidin-1-yl)methyl)-3-methyl-1H-pyrazol-1-yl)-5-methylpyrimidin-2-ylamino)-4-methoxy-2-morpholinophenyl)acrylamide]	< 20 nM	< 20 nM	< 20 nM	< 20 nM	< 20 nM	< 20 nM	201 to 1000 nM	> 1000 nM	> 1000 nM	< 20 nM	< 20 nM	>200 fold	101-200 fold
C=CC(=O)Nc1cc(Nc2ncc(C)c(-n3cc(CN4CCC4)cn3)n2)c(OC)cc1N1CCOCC1 [Compound 32, N-(5-(4-(4-(azetidin-1-ylmethyl)-1H-pyrazol-1-yl)-5-methylpyrimidin-2-ylamino)-4-methoxy-2-morpholinophenyl)acrylamide]	< 20 nM	< 20 nM	< 20 nM	< 20 nM	< 20 nM	< 20 nM	201 to 1000 nM	> 1000 nM	> 1000 nM	201 to 1000 nM	20 to 200 nM	20-100 fold	20-100 fold
C=CC(=O)Nc1cc(Nc2ncc(C)c(-n3cc(CN4CCC4)cn3)n2)c(OC)cc1N1CCN(C)CC1 [Compound 36, N-(5-(4-(4-(azetidin-1-ylmethyl)-1H-pyrazol-1-yl)-5-methylpyrimidin-2-ylamino)-4-methoxy-2-(4-methylpiperazin-1-yl)phenyl)acrylamide]	< 20 nM	< 20 nM	< 20 nM	< 20 nM	< 20 nM	< 20 nM	> 1000 nM	> 1000 nM	> 1000 nM	20 to 200 nM	20 to 200 nM	20-100 fold	20-100 fold

Continued, in another order:

IC50 (EGFR mutant T790M)	IC50 [1]	IC50 (EGFR mutant L858R)	IC50 (EGFR mutant L858R/T790M)	IC50 (EGFR mutant Del19/T790M)	IC50 (JAK3)	IC50 (SYK)	IC50 (KDR)	IC50 (H2073 (EGFR wildtype))	IC50 [2]	IC50 [3]	SMILES	Selectivity over wildtype, Wildtype vs mutant H2073/PC9 (fold) [2]	Selectivity over wildtype, Wildtype vs mutant H2073/H1975 (fold) [3]
< 20 nM	< 20 nM	< 20 nM	< 20 nM	< 20 nM	< 20 nM	201 to 1000 nM	> 1000 nM	> 1000 nM	< 20 nM	< 20 nM	C=CC(=O)Nc1cc(Nc2nccc(-n3cc(CN(C)C)c(C)n3)n2)c(OC)cc1N(C)C [Compound 71, N-(2-(dimethylamino)-5-(4-(4-((dimethylamino)methyl)-3-methyl-1H-pyrazol-1-yl)pyrimidin-2-ylamino)-4-methoxyphenyl)acrylamide]	>200 fold	>200 fold
< 20 nM	< 20 nM	< 20 nM	< 20 nM	< 20 nM	< 20 nM	201 to 1000 nM	> 1000 nM	> 1000 nM	< 20 nM	< 20 nM	C=CC(=O)Nc1cc(Nc2ncc(C)c(-n3cc(CN4CCC4)c(C4CC4)n3)n2)c(OC)cc1N1CCOCC1 [Compound 123, N-(5-(4-(4-(azetidin-1-ylmethyl)-3-cyclopropyl-1H-pyrazol-1-yl)-5-methylpyrimidin-2-ylamino)-4-methoxy-2-morpholinophenyl)acrylamide]	>200 fold	>200 fold
< 20 nM	< 20 nM	< 20 nM	< 20 nM	< 20 nM	< 20 nM	201 to 1000 nM	> 1000 nM	> 1000 nM	20 to 200 nM	20 to 200 nM	C=CC(=O)Nc1cc(Nc2nccc(-n3cc(CN(C)C)c(C)n3)n2)c(OC)cc1N1CCN(CCF)CC1 [Compound 79, N-(5-(4-(4-((dimethylamino)methyl)-3-methyl-1H-pyrazol-1-yl)pyrimidin-2-ylamino)-2-(4-(2-fluoroethyl)piperazin-1-yl)-4-methoxyphenyl)acrylamide]	101-200 fold	101-200 fold
< 20 nM	< 20 nM	< 20 nM	< 20 nM	< 20 nM	< 20 nM	> 1000 nM	> 1000 nM	> 1000 nM	< 20 nM	20 to 200 nM	C=CC(=O)Nc1cc(Nc2nccc(-n3cc(CN4CCC4)c(C4CC4)n3)n2)c(OC)cc1N1CCOCC1 [Compound 55, N-(5-(4-(4-(azetidin-1-ylmethyl)-3-cyclopropyl-1H-pyrazol-1-yl)pyrimidin-2-ylamino)-4-methoxy-2-morpholinophenyl)acrylamide]	>200 fold	101-200 fold
< 20 nM	< 20 nM	< 20 nM	< 20 nM	< 20 nM	< 20 nM	> 1000 nM	> 1000 nM	> 1000 nM	20 to 200 nM	20 to 200 nM	C=CC(=O)Nc1cc(Nc2ncc(F)c(-n3cc(CN4CCC4)c(C)n3)n2)c(OC)cc1N1CCOCC1 [Compound 62, N-(5-(4-(4-(azetidin-1-ylmethyl)-3-methyl-1H-pyrazol-1-yl)-5-fluoropyrimidin-2-ylamino)-4-methoxy-2-morpholinophenyl)acrylamide]	>200 fold	>200 fold
< 20 nM	< 20 nM	20 to 200 nM	< 20 nM	< 20 nM	< 20 nM	> 1000 nM	> 1000 nM	> 1000 nM	20 to 200 nM	20 to 200 nM	C=CC(=O)Nc1cc(Nc2ncc(Cl)c(-n3cc(CN4CCC4)c(C)n3)n2)c(OC)cc1N1CCOCC1 [Compound 50, N-(5-(4-(4-(azetidin-1-ylmethyl)-3-methyl-1H-pyrazol-1-yl)-5-chloropyrimidin-2-ylamino)-4-methoxy-2-morpholinophenyl)acrylamide]	101-200 fold	>200 fold
< 20 nM	< 20 nM	20 to 200 nM	< 20 nM	< 20 nM	< 20 nM	201 to 1000 nM	> 1000 nM	> 1000 nM	201 to 1000 nM	201 to 1000 nM	C=CC(=O)Nc1cc(Nc2ncc(C)c(-n3cc(C)c(CN4CC(O)C4)c3)n2)c(OC)cc1N1CCOCC1 [Compound 48, N-(5-(4-(3-((3-hydroxyazetidin-1-yl)methyl)-4-methyl-1H-pyrrol-1-yl)-5-methylpyrimidin-2-ylamino)-4-methoxy-2-morpholinophenyl)acrylamide]	<20 fold	<20 fold
